Reference: patent US8822517B2, “Arylosulfonamides for the treatment of CNS diseases” (Adamed SP. Z O.O., priority 2010, dated 2014)
Where two headings read alike, the source gives them in different places.

Experiments:
[1] = target: hERG potassium channels (Homo sapiens, UniProt Q12809); experiment: hERG potassium channel block, electrophysiology (IonWorks Quattro), CHO cells
Description: Ability to block hERG potassium channels was determined using the electrophysiological method and cloned hERG potassium channels (KCNH2 gene, expressed in CHO cells) as biological material. The effects were evaluated using IonWorks™ Quattro system (MDS-AT).
hERG current was elicited using a pulse pattern with fixed amplitudes (conditioning prepulse: −80 mV for 25 ms; test pulse: +40 mV for 80 ms) from a holding potential of 0 mV. hERG current was measured as a difference between the peak current at 1 ms after the test step to +40 mV and the steady-state current at the end of the step to +40 mV.
Data acquisition and analyses was performed using the IonWorks Quattro™ system operation software (version 2.0.2; Molecular Devices Corporation, Union City, Calif.). Data were corrected for leak current.

[2] = target: T1, serotoninergic 5-HT1A receptor (Homo sapiens, UniProt P08908); experiment: Cellular functional assay, serotoninergic 5-HT1A receptor (agonism/antagonism); type: cell-based
T1 sequence (P08908 1-422): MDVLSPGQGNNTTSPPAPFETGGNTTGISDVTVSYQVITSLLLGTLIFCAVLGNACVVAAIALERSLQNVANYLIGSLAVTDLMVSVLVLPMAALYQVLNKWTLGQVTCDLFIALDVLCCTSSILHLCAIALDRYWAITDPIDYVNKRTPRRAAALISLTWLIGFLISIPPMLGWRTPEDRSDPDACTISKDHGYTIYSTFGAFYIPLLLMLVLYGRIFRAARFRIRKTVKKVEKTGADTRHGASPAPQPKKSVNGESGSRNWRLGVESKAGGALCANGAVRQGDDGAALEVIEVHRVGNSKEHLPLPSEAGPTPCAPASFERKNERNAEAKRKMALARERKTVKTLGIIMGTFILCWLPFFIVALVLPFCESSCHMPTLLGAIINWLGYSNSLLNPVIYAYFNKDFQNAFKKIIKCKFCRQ
Description: The compounds were tested at the concentration of 1×10^−6M.
In the Tables ag refers to agonism, and antag to antagonism).

[3] = target: T2, adrenergic α1A receptor (Homo sapiens, UniProt P35348); experiment: Cellular functional assay, adrenergic α1A receptor (agonism/antagonism); type: cell-based; details: for activation at 1 µM: read-out: α1A -ag [%]; for inhibition at 1 µM: read-out: α1A -antag. [%]
T2 sequence (P35348 1-466): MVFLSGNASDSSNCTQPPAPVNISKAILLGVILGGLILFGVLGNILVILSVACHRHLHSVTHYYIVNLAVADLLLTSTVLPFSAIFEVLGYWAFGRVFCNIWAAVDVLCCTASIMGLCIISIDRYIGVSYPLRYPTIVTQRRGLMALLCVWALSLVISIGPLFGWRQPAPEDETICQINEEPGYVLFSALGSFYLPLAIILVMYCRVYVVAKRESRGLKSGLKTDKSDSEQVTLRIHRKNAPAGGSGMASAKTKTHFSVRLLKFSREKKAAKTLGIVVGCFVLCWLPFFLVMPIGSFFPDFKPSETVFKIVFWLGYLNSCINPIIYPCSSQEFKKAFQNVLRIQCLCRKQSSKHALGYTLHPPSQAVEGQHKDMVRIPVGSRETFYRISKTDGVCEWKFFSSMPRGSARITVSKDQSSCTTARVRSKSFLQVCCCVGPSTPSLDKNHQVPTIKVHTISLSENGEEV
Description: […]. The compounds were tested at the concentration of 1×10^−6M.
Conditions and methodology (by reference to the literature) of cellular functional assays are given in Table 13 and the tests results for representative compounds are given in Table 14 (dopaminergic receptor D2), in Table 15 (dopaminergic receptor D3), in Table 16 (serotoninergic receptor 5-HT1A), in Table 17 (serotoninergic receptor 5-HT2A), in Table 18 (serotoninergic receptor 5-HT6), in Table 19 (serotoninergic receptor 5-HT7), in Table 20 (adrenergic α1 receptor), in Table 21 (adrenergic α2C receptor), in Table 22 (histaminergic H1 receptor) and in Table 23 (serotoninergic 5-HT2C receptor). In the Tables ag refers to agonism, and antag to antagonism).

[4] = target: serotoninergic 5-HT2A receptor (Homo sapiens, UniProt P28223); experiment: Binding assay 5-HT2A (h), [3H]ketanserin, HEK-293 cells; set-up: expressed in transfected cells; host or cells: HEK-293 cells; details: read-out: 5-HT2A
Outline: (§1)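 Compounds were screened at 1×10^−6 M, and bound radioactivity was measured by scintillation counting. Specific binding equals total binding minus nonspecific binding obtained with an excess of unlabelled ligand.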

[5] = target: T1, serotoninergic 5-HT1A receptor; experiment: Binding assay 5-HT1A (h), [3H]8-OH-DPAT, HEK-293 cells; set-up: expressed in transfected cells; host or cells: HEK-293 cells; details: read-out: 5-HT1A
Outline: as §1

[6] = target: T3, serotoninergic receptor 5-HT2C (Homo sapiens, UniProt P28335); experiment: Binding assay 5-HT2C (h), [3H]mesulergine, HEK-293 cells; details: read-out: 5-HT2C [%]
T3 construct: expressed in transfected cells; host or cells: HEK-293 cells
T3 sequence (P28335 33-458): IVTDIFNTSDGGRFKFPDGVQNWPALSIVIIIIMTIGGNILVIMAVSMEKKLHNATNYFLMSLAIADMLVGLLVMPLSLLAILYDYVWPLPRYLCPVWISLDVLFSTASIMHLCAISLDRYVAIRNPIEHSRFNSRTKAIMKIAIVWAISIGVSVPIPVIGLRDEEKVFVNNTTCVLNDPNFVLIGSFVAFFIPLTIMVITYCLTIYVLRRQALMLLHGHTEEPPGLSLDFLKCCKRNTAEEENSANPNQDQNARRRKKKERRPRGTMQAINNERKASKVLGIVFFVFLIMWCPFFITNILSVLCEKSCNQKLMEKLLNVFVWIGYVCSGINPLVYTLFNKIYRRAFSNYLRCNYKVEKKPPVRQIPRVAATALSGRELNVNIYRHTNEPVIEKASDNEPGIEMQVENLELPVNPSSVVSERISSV
Outline: as §1

[7] = system: mice; experiment: d-Amphetamine-induced locomotor hyperactivity in mice; details: for MED*: minimum effective dose, d-amphetamine-induced locomotor hyperactivity, i.p.
Description: All the experiments were performed by two observers unaware of the treatment applied between 9:00 and 14:00 on separate groups of animals. All animals were used only once and were killed immediately after the experiment.
The locomotor activity was recorded with an Opto M3 multi-channel activity monitor (MultiDevice Software v. 1.3, Columbus Instruments). The mice were individually placed in plastic cages (22×12×13 cm) for 30 minutes habituation period, and then the crossings of each channel (ambulation) were counted during 1 h with data recording every 5 minutes. The cages were cleaned up with 70% ethanol after each mouse. Drugs were administered to 10 mice per treatment group. d-Amphetamine was administered 30 minutes before the test.
An injection volume of 10 ml/kg (mice) or 2 ml/kg (rats) was used throughout and all compounds were administered intraperitoneally (i.p.), except d-amphetamine that was given subcutaneously (s.c.).
All the data are expressed as the mean±SEM. The statistical significance of effects was evaluated using separate one-way analysis of variance (ANOVA) with comparison between individual groups by Dunnett's test (when only one drug was given) or by the Tukey's test when two drugs were used; p<0.05, p<0.01 and p<0.001 were considered statistically significant. ED50 values were calculated using Graph Pad Prism 5 Software.

[8] = % block of hERG current, cloned hERG channels in CHO cells, IonWorks Quattro
[9] = CHO; read-out: 5-HT1A-antag. [%]
[10] = agonist effect, percent of control specific agonist response (100 nM 8-OH-DPAT for control); 1×10^−6 M; 5-HT1A (h), CHO cells; read-out: 5-HT1A-ag [%]
[11] = agonist effect, percent of control specific agonist response, compounds tested at 1×10^−6M

Chain of serotoninergic 5-HT2A receptor (P28223 whole entry): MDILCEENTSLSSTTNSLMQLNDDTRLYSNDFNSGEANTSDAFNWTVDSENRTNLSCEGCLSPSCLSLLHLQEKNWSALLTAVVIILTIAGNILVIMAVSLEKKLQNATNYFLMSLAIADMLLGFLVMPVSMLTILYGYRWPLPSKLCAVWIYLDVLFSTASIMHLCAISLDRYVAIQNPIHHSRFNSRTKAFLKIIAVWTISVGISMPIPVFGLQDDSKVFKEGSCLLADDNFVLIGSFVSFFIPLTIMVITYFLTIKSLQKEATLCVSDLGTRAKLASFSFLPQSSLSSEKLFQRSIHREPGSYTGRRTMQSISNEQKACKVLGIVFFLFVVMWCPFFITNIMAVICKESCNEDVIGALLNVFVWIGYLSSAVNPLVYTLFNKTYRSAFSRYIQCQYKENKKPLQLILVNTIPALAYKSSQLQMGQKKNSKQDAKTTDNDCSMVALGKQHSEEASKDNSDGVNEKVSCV
Chain of hERG potassium channels (Q12809 whole entry): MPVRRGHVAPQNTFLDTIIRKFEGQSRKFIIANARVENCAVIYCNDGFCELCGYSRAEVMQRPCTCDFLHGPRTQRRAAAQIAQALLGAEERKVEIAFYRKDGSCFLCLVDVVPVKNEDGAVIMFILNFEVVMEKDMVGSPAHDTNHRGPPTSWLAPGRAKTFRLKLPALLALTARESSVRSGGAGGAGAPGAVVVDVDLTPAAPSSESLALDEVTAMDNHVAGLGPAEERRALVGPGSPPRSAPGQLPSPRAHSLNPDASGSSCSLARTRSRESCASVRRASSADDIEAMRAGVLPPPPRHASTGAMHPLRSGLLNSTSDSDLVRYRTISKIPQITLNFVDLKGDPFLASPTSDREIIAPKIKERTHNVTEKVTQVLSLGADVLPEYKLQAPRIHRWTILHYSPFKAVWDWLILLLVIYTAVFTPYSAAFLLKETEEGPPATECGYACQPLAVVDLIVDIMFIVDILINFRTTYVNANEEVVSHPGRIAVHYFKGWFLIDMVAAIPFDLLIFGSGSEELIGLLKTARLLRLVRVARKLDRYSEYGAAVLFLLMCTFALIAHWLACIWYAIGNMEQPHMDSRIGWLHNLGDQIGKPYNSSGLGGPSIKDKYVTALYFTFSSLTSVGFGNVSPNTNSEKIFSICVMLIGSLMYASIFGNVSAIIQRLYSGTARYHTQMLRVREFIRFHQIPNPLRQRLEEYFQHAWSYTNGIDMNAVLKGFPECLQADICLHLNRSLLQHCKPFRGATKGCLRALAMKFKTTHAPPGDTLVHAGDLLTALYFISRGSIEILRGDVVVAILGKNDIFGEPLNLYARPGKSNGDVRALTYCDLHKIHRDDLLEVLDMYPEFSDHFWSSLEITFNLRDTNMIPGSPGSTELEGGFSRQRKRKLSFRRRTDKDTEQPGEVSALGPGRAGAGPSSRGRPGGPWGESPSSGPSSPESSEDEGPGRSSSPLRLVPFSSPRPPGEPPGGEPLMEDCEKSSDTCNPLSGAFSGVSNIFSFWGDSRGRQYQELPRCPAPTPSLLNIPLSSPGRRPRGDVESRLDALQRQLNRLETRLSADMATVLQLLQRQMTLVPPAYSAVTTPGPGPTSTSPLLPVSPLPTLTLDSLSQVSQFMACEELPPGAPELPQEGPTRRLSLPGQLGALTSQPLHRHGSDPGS

| SMILES | hERG [%] [1] [%] | activation at 1 µM ([2]; CHO, read-out: 5-HT1A-ag [%]) [%] | inhibition at 1 µM ([2]; CHO, read-out: 5-HT1A-antag. [%]) [%] | activation at 1 µM [3] [%] | inhibition at 1 µM [3] [%] | inhibition at 1 µM [4] [%] | inhibition at 1 µM [5] [%] | inhibition at 1 µM [6] [%] | MED* [7] [mg/kg] | hERG [%] [1, 8] [%] | inhibition at 1 µM [2, 9] [%] | activation at 1 µM [2, 10] [%] | activation at 1 µM [3, 11] [%] | activity in d-amphetamine induced hyperlocomotion [7] |
| --- | --- | --- | --- | --- | --- | --- | --- | --- | --- | --- | --- | --- | --- | --- |
| O=S(=O)(NCCCCN1CCN(c2nsc3ccccc23)CC1)c1ccc2ccccc2c1 [Compound 2, N-(4-(4-(1,2-Benzothiazol-3-yl)piperazin-1-yl)butyl)naphthalene-2-sulphonamide] | 14 | 47 | 18 | 0 | 100 | 100 | 99 | 89 | 5 | – | – | – | – | – |
| Cc1cccc(S(=O)(=O)NCCCN2CCN(c3nsc4ccccc34)CC2)c1 [Compound 7, N-(3-(4-(1,2-Benzothiazol-3-yl)piperazin-1-yl)propyl)-3-methylbenzenesulphonamide] | – | – | – | – | 100 | 100 | 99 | 89 | 2 | 14 | 51 | 59 | 0 | – |
| O=S(=O)(NCCCCN1CCC(c2noc3cc(F)ccc23)CC1)c1ccc2ccccc2c1 [Compound 18, N-[4-[4-(6-Fluoro-1,2-benzoxazol-3-yl)piperidin-1-yl]butyl]naphthalene-2-sulphonamide] | – | – | – | – | 99 | 100 | 81 | 73 | 2.5 | 30 | – | – | 0 | – |
| Cc1cccc(S(=O)(=O)NCCCN2CCC(c3noc4cc(F)ccc34)CC2)c1 [Compound 22, N-[3-[4-(6-Fluoro-1,2-benzoxazol-3-yl)piperidin-1-yl]propyl]-3-methylbenzenesulphonamide] | – | – | – | – | 100 | 99 | 75 | 73 | 2.5 | 52 | 99 | 0 | 0 | active |
| O=S(=O)(NCCCCN1CCN(c2cccc3[nH]ccc23)CC1)c1cnc2ccccn12 [Compound 30, N-{4-[4-(1H-Indol-4-yl)piperazin-1-yl]butyl}-imidazo[1,2-a]pyridine-3-sulphonamide] | – | – | – | – | 97 | 67 | 100 | 11 | – | −3 | 86 | 22 | 0 | – |
| O=S(=O)(NCCCCN1CCN(c2nsc3ccccc23)CC1)c1ccc2cc(Cl)ccc2c1 [Compound 61, N-[4-[4-(1,2-Benzothiazol-3-yl)piperazin-1-yl]butyl]-6-chloro-naphthalene-2-sulphonamide] | – | – | – | – | 100 | 100 | 94 | 95 | – | 12 | 20 | 75 | 0 | – |
| O=S(=O)(NCCCCN1CCC(c2noc3cc(F)ccc23)CC1)c1ccc2cc(Cl)ccc2c1 [Compound 97, 6-Chloro-N-[4-[4-(6-fluoro-1,2-benzoxazol-3-yl)piperidin-1-yl]butyl]naphthalene-2-sulphonamide] | – | – | – | – | 99 | 100 | 75 | 89 | 2.5 | – | 38 | 13 | 0 | – |
| O=S(=O)(NCCCCN1CCN(c2cccc3[nH]ccc23)CC1)c1cccc(Cl)c1 [Compound 113, N-[4-[4-(1H-Indol-4-yl)piperazin-1-yl]butyl]-3-chlorobenzenesulphonamide] | – | – | – | – | 100 | 69 | 100 | 10 | – | 16 | 92 | 32 | 1 | – |
| N#Cc1cccc(S(=O)(=O)NCCCN2CCC(c3noc4cc(F)ccc34)CC2)c1 [Compound 338, 3-cyano-N-[3-[4-(6-fluoro-1,2-benzoxazol-3-yl)piperidin-1-yl]propyl]benzenesulphonamide] | – | – | – | – | 100 | 102 | 80 | 76 | – | 40.5 | – | – | 2 | – |
| O=S(=O)(NCCCCN1CCN(c2cccc3[nH]ccc23)CC1)c1ccc2cc(Cl)ccc2c1 [Compound 358, 6-Chloro-N-[4-[4-(1H-indol-4-yl)piperazin-1-yl]butyl]naphthalene-2-sulphonamide] | – | – | – | – | – | 99 | 100 | 62 | – | 0 | 70 | 22 | – | – |
| O=S(=O)(NCCCCN1CCN(c2cccc3[nH]ccc23)CC1)c1ccc(F)cc1 [Compound 359, 4-Fluoro-N-[4-[4-(1H-indol-4-yl)piperazin-1-yl]butyl]benzenesulphonamide] | – | – | – | – | 100 | 79 | 100 | 12 | – | 9 | 94 | 22 | 1 | – |
| O=S(=O)(NCCCCN1CCN(c2cccc3[nH]ccc23)CC1)c1cc2ccc(Cl)cc2s1 [Compound 363, 6-Chloro-N-[4-[4-(1H-indol-4-yl)piperazin-1-yl]butyl]benzothiophene-2-sulphonamide] | – | – | – | – | 100 | 98 | 101 | 57 | – | 0 | 27 | 78 | 0 | – |
